Laboratory results from patent US8487003B2, “Treatment of cancer by administration of perfluorooctanoic acid” (CXR Biosciences Limited, priority 2001, dated 2013).

Key:
C57BL/6J-ob/ob mice = test: Obese ob/ob mouse model, oral gavage daily for 14 days; type: in vivo
Procedure: (§1) The C57BL/6J-ob/ob mouse is an obese, leptin-deficient animal that is widely accepted as a model of obesity and diabetes. Age-paired, disease-free (lean) animals (C57BL/6J-+/+) were also included in the study to observe the ‘normal’ response.
(§2) One group of 10 ob/ob mice was also treated with vehicle (water) alone.
(§3) Twenty-four hours after the last dose the animals were killed by an increasing concentration of carbon dioxide. Blood was collected by cardiac puncture and plasma prepared and stored at −70° C. until analysed. Major tissues were weighed, sampled, flash frozen in liquid nitrogen and stored at −70° C.
(§4) Plasma was analysed for triglycerides, cholesterol and glucose using kits purchased from Sigma (Poole, Dorset). Concentrations of plasma insulin and leptin were determined using commercially available enzymeimmunoassay-based kits from Amersham Life Sciences and Crystalchem Inc., (Chicago) respectively. All assays were carried out as specified by the manufacturer.

GK/Mol rats = test: Diabetic GK/Mol rat model, oral gavage daily for 14 days; type: in vivo
Procedure: (§5) The GK/Mol rat is a non-obese, diabetic animal that is widely accepted as a model of Type II diabetes. In order to measure the ‘normal’ response, non-diabetic Wistar rats were also used in the study.
(§6) One group of 10 GK/Mol rats was also treated with vehicle (water) alone.
as §3
(§7) Plasma was analysed for, triglycerides, cholesterol, glucose, insulin and leptin as described in section 1.1.1.

mouse PPAR alpha = target: T1, mouse PPAR alpha (Mus musculus, UniProt P23204); test: Mouse PPAR alpha transactivation assay in COS-1 cells; type: cell-based; settings: luciferase reporter, 16 hours, read-out: EC50, activation of mouse PPAR alpha
T1 construct: expressed in transfected cells; host or cells: COS-1 cells
T1 sequence (P23204 1-468): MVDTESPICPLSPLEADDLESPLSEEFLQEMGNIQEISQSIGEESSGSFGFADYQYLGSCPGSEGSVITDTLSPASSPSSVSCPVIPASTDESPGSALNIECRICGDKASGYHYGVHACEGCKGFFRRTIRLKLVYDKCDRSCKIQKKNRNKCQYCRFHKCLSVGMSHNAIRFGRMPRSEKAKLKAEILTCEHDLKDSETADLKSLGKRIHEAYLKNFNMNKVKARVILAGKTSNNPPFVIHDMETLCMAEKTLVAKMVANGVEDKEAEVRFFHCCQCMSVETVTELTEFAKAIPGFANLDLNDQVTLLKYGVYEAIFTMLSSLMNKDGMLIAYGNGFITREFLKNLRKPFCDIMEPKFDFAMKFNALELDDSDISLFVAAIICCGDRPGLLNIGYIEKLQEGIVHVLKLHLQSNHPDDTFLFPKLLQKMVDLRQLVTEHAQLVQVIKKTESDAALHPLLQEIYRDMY

HepG2 cells = test: In vitro cytotoxicity (MTT), HepG2; type: cell-based, human; settings: HepG2, 4 hours exposure
Procedure: (§8) HT-29 cells (human colon tumour-derived), MCF7 cells (human breast cancer-derived) and HepG2 cells (human liver cancer-derived) were cultured in Dulbecco's Modified Eagles Medium (DMEM) supplemented with 10% heat-inactivated foetal calf serum, 2 mM L-glutamine, penicillin (50 IU/ml), streptomycin (50 μg/ml) and 1% non-essential amino acids. Cells were harvested by trypsinisation and diluted to 5×10^4 cells/ml, and 200 μl of cell suspension was plated into each well of a 96 well plate and allowed to attach overnight at 37° C. with 5% CO2. […] 20 μl of a 5 mg/1 m MTT solution was added to each well and the cells were incubated for 4 hours at 37° C. The medium was removed and 200 μl DMSO was added to dissolve formazan crystals. Plates were read at 570 nm and background at 690 nm was subtracted.

C57BL/6J-+/+ mice = test: Lean disease-free +/+ mice, oral gavage daily for 14 days; type: in vivo, mouse; settings: 25 mg/kg/day
Procedure: as §1, §2, §3, §4

HT-29 cells = test: In vitro cytotoxicity (MTT), HT-29; type: cell-based, human; settings: HT-29, 4 hours exposure
Procedure: as §8

HT-29 xenograft = HT-29 xenograft model in nude mice; type: in vivo, nu/nu mice; settings: for lag phase of tumour growth: ip 3 times per week
Procedure: Athymic nude (nu/nu) mice from ICRF stock (HsdOla:ICRF-nu) were obtained from Clare Hall (Pofters Bar, UK). All animals were female and approximately 9 weeks old. Animals, housed in isolator cages and handled under laminar flow, were divided into one control group and two treatment groups, with 5 female mice per group for both the prophylactic and therapeutic schedules
HT-29 cells were cultured according to the conditions described in section 2.1.1. Cells were harvested, pooled by centrifugation and resuspended in 5 ml medium to which 5 ml Matrigel (basement membrane matrix) was added. 100 μl of cell suspension was injected subcutaneously into each flank of the mice (1.75×10^6 cells per flank).
The volume of the dosing solution was 10 ml/kg bodyweight. Control animals received an equivalent volume of water.
Animal bodyweights were recorded throughout the study. Tumour growth was measured 3 times per week using digital calipers and the volume was calculated using the formula:
Where d1=mean length (n=2) and d2=mean width (n=2). (NB, n=4 if tumour was an irregular shape).
The maximum permitted tumour volume, according to the terms of the Home Office license, was 1.44 cm^3. Results were expressed graphically for each time point as mean tumour volumes. Tumour weights were recorded at the end of the study, and tumour samples were either snap frozen in liquid nitrogen or fixed in formal saline for further analysis.

Wistar rats = test: Non-diabetic Wistar rats, oral gavage daily for 14 days; type: in vivo, rat
Procedure: as §5, §6, §3, §7

MCF7 cells = test: In vitro cytotoxicity (MTT), MCF7; type: cell-based, human; settings: MCF7, 4 hours exposure
Procedure: as §8

male Fischer 344 rats = test: APFO in diet of male Fischer 344 rats for up to one year; type: in vivo, rat; settings: 300 ppm in diet
Procedure: Body weights were initially determined daily and then weekly. Food consumption was determined weekly. Clinical observations were made daily.
Rats were sacrificed at 1, 2, 7, 14, 28, 90, 182 and 365 days. There were 8 rats per group. At sacrifice blood was sampled by cardiac puncture and submitted for clinical chemistry.

## N.O=C(O)C(F)(F)C(F)(F)C(F)(F)C(F)(F)C(F)(F)C(F)(F)C(F)(F)F [APFO, ammonium perfluorooctanoate]
C57BL/6J-ob/ob mice; 5, 15, 25 mg/kg/day, 14 days
  other adverse clinical observations: No other adverse clinical observations
C57BL/6J-ob/ob mice; all treated ob/ob mice (5, 15, 25 mg/kg/day)
  reduction in plasma insulin concentration: greater than 90%
C57BL/6J-ob/ob mice; ob/ob, 5 mg/kg/day
  plasma triglyceride concentration: no effect
  reduction of plasma glucose: approximately 50%
C57BL/6J-ob/ob mice; ob/ob, 5 mg/kg/day, 14 days
  bodyweight: unaffected
C57BL/6J-ob/ob mice; ob/ob, 15 mg/kg/day, 14 days
  bodyweight loss over the study period: 20%
C57BL/6J-ob/ob mice; ob/ob, 25 mg/kg/day
  reduction in plasma cholesterol concentration: ~30%
C57BL/6J-ob/ob mice; ob/ob, 25 mg/kg/day, 14 days
  bodyweight loss as percentage of initial bodyweight: 33%
C57BL/6J-ob/ob mice; ob/ob, 15 or 25 mg/kg/day
  plasma triglyceride, % of control values: 40%
C57BL/6J-ob/ob mice; ob/ob, 15 or 25 mg/kg/day, dose-related
  plasma glucose, % of control values: approximately 20%
C57BL/6J-ob/ob mice; ob/ob, dose-related
  epididymal fat pad weight: decreased
C57BL/6J-ob/ob mice; ob/ob, high dose 25 mg/kg/day
  food consumption lower than control mice: 76%
C57BL/6J-ob/ob mice; ob/ob, intermediate dose 15 mg/kg/day
  food consumption lower than control mice: 53%
C57BL/6J-ob/ob mice; ob/ob, low and mid dose levels (5, 15 mg/kg/day)
  reduction in plasma cholesterol concentration: not evident
C57BL/6J-ob/ob mice; ob/ob, low dose 5 mg/kg/day
  food consumption lower than control mice: 17%
GK/Mol rats; GK/Mol rats
  plasma leptin concentration: no differences
GK/Mol rats; GK/Mol, 30 mg/kg/day
  plasma glucose, % of control values: about 85%
GK/Mol rats; GK/Mol, 3, 10, 30 mg/kg, not related to dose
  total food consumption, % of control values: 86-98%
GK/Mol rats; GK/Mol, dose-dependent reduction reaching this value
  plasma insulin, % of control values: about 10%
GK/Mol rats; GK/Mol, high dose 30 mg/kg
  body weight gain, % of control values: 44%
GK/Mol rats; GK/Mol, low dose 3 mg/kg
  body weight gain, % of control values: 90%
GK/Mol rats; GK/Mol, mid dose 10 mg/kg
  body weight gain, % of control values: 71%
Mouse PPAR alpha
  EC50: 102 µM
HepG2 cells
  concentration eliciting a cytotoxic effect: exceeding 500 μM
C57BL/6J-+/+ mice
  epididymal fat pad weight: decreased
  overall food consumption lower than +/+ controls: 31%
  plasma glucose, % of control values: 55%
  plasma insulin concentration: marked reduction
  plasma leptin concentration decreased: to, or below the level of quantitation
  plasma triglycerides, % of control values: 35%
  reduction in plasma cholesterol concentration: ~30%
C57BL/6J-+/+ mice; 14 days
  bodyweight loss as percentage of initial bodyweight: 26%
HT-29 cells
  concentration eliciting a cytotoxic effect: exceeding 500 μM
HT-29 xenograft; prophylactic and therapeutic groups, 15 and 25 mg/kg ip
  animal body weight versus control: no significant difference
HT-29 xenograft; prophylactic group, control tumours solid
  macroscopic appearance of tumours: fluid-filled
HT-29 xenograft; prophylactic, 15 mg/kg ip
  tumour volume course: continued to increase
  tumour weight smaller than in control animals: 22%
HT-29 xenograft; prophylactic, 25 mg/kg ip
  time after which tumour growth reached a plateau: 26 days
  tumour weight smaller than in control animals: 58%
HT-29 xenograft; prophylactic, control 15 days
  lag phase of tumour growth: 22 days
HT-29 xenograft; therapeutic, 15 mg/kg ip
  tumour weight smaller than controls: 45%
HT-29 xenograft; therapeutic, 25 mg/kg ip
  tumour weight smaller than controls: 37%
HT-29 xenograft; therapeutic, highest dose group 25 mg/kg, study incomplete
  plateau of tumour growth: No plateau was reached
HT-29 xenograft; therapeutic, control 17 days
  lag phase of tumour growth: 26 days
Wistar rats; 30 mg/kg
  bodyweight gain: no effect
  food consumption versus controls: no difference
  plasma cholesterol, % of control values: 73%
  plasma insulin, % of control values: about 10%
Wistar rats; 30 mg/kg/day
  group mean plasma leptin lower than controls by: approximately 40%
MCF7 cells
  concentration eliciting a cytotoxic effect: exceeding 500 μM
Male Fischer 344 rats
  adverse clinical symptoms or changes in activity: not accompanied by any adverse clinical symptoms
  bodyweight gain: marked reductions
Male Fischer 344 rats; 7 days and beyond
  plasma triglycerides: decreased
Male Fischer 344 rats; after first week
  food consumption per rat, % of control values: 80-90%
Male Fischer 344 rats; all time points (1-365 days)
  plasma cholesterol concentration: decreased
  plasma glucose concentration: decreased
  plasma insulin concentration: decreased
Male Fischer 344 rats; first week
  decrease of food consumed per unit bodyweight: approximately 30%
Male Fischer 344 rats; first week of treatment
  food consumption per rat, % of control consumption: approximately 50%
Male Fischer 344 rats; up to one year
  body weights lower than concurrent controls: 25-30%
